These are literature values, as cited in patent US20050107349A1, “Method for the treatment or prevention of respiratory disorders with a cyclooxygenase-2 inhibitor in combination with a muscarinic receptor antagonist and compositions therewith” (Pharmacia Corporation, priority 2003, published 2005).

Series [1] relates to subjects suffering from asthma.

Take `C[N+]1(C)[C@@H]2C[C@@H](OC(=O)C(O)(c3cccs3)c3cccs3)C[C@H]1[C@@H]1O[C@@H]12` [tiotropium, (1α, 2β, 4β, 5α, 7β)-7-[(hydroxy-2-thienylacetyl)oxy]-9,9-dimethyl-3-oxa-9-azoniatricyclo [3.3.1.0^2,4]nonane bromide monohydrate]: in the series on patients with COPD, the “dose-dependent and prolonged bronchodilator effect (duration)” value is not above 48 h. The bronchodilation entry in series [1] was “prolonged bronchodilation”.
